Assay results taken from the supplement of paper PMC10307832.

What was measured:
Assay in all cases: relative viability (nuclei count vs DMSO), 5 days (fraction); higher = more cells survive
[1] = compound: CC(C)N(CCCNC(=O)Nc1ccc(C(C)(C)C)cc1)C[C@H]1O[C@@H](n2ccc3c(N)ncnc32)[C@H](O)[C@@H]1O + Nc1ncn([C@H]2C[C@H](O)[C@@H](CO)O2)c(=O)n1 [Decitabine] (partner 2 µM)
Summary of the method: (§1)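 One day after seeding in 1536-well plates, lung cancer cell lines were dosed by pin tool. Dosing was either single-drug or a fixed anchor-drug dose plus five library-drug doses (not always all listed) in √10 steps. After 5 days, nuclei were stained in one fix-and-stain step and counted on 4× images, and relative viability is the nuclei count of treated wells over that of vehicle wells, given as the median of duplicate plates.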

[2] = compound: CC(C)N(CCCNC(=O)Nc1ccc(C(C)(C)C)cc1)C[C@H]1O[C@@H](n2ccc3c(N)ncnc32)[C@H](O)[C@@H]1O + C[C@@H](Oc1cc(-c2cnn(C3CCNCC3)c2)cnc1N)c1c(Cl)ccc(F)c1Cl [Crizotinib] (partner 1 µM)
Summary of the method: as §1

[3] = compound: CC(C)=CC[C@@H](O)C1=CC(=O)c2c(O)ccc(O)c2C1=O [Shikonin] + NC(=O)Nc1cc(-c2cccc(F)c2)sc1C(=O)N[C@H]1CCCNC1 [AZD7762] (partner 0.2 µM)
Summary of the method: as §1

[4] = compound: CC(C)=CC[C@@H](O)C1=CC(=O)c2c(O)ccc(O)c2C1=O [Shikonin] + CC(=O)c1c(C)c2cnc(Nc3ccc(N4CCNCC4)cn3)nc2n(C2CCCC2)c1=O [Palbociclib] (partner 0.5 µM)
Summary of the method: as §1

Cell Line | relative viability ([1]; first compound 0.08 µM) | relative viability ([1]; first compound 0.253 µM) | relative viability ([1]; first compound 0.8 µM) | relative viability ([1]; first compound 2.53 µM) | relative viability ([1]; first compound 8 µM) | relative viability ([2]; first compound 0.08 µM) | relative viability ([2]; first compound 0.253 µM) | relative viability ([2]; first compound 0.8 µM) | relative viability ([2]; first compound 2.53 µM) | relative viability ([2]; first compound 8 µM) | relative viability ([3]; first compound 0.01 µM) | relative viability ([3]; first compound 0.1 µM) | relative viability ([3]; first compound 0.3162 µM) | relative viability ([3]; first compound 1 µM) | relative viability ([4]; first compound 0.01 µM) | relative viability ([4]; first compound 0.1 µM) | relative viability ([4]; first compound 0.3162 µM) | relative viability ([4]; first compound 1 µM)
NCI-H358 | 0.233 | 0.187 | 0.212 | 0.214 | 0.189 | 0.614 | 0.554 | 0.717 | 0.589 | 0.448 | 0.425 | 0.62 | 0.607 | 0.603 | 0.139 | 0.132 | 0.131 | 0.131
EPLC-272H | 0.366 | 0.381 | 0.368 | 0.413 | 0.39 | 0.944 | 0.986 | 0.869 | 0.895 | 0.822 | 0.194 | 0.265 | 0.241 | 0.176 | 0.373 | 0.321 | 0.336 | 0.282
LXF-289 | 0.329 | 0.39 | 0.396 | 0.378 | 0.336 | 0.781 | 0.893 | 0.834 | 0.837 | 0.78 | 1.13 | 1.15 | 1.14 | 1.18 | 0.594 | 0.707 | 0.618 | 0.622
NCI-H3122 | 0.445 | 0.467 | 0.462 | 0.409 | 0.481 | 0.349 | 0.299 | 0.285 | 0.3 | 0.277 | 0.973 | 1.07 | 1.05 | 0.959 | 0.228 | 0.215 | 0.178 | 0.176
NCI-H1755 | 0.787 | 0.701 | 0.666 | 0.668 | 0.714 | 0.841 | 0.9 | 0.889 | 0.832 | 0.73 | 0.384 | 0.422 | 0.373 | 0.427 | 0.463 | 0.443 | 0.432 | 0.482
HCC-78 | 0.783 | 0.667 | 0.667 | 0.707 | 0.777 | 0.312 | 0.304 | 0.329 | 0.374 | 0.34 | 0.647 | 0.74 | 0.534 | 0.694 | 0.459 | 0.481 | 0.461 | 0.413
LOU-NH91 | 0.757 | 0.815 | – | 0.858 | 0.793 | 0.755 | 0.735 | – | 0.7 | 0.721 | 0.839 | 0.864 | 0.816 | 0.84 | 0.546 | 0.526 | 0.549 | 0.5
NCI-H322M | 0.698 | 0.695 | 0.723 | 0.689 | 0.641 | 0.912 | 1.04 | 0.802 | 0.969 | 0.962 | 0.59 | 0.568 | 0.451 | 0.572 | 0.479 | 0.446 | 0.477 | 0.489
HCC-827 | 0.322 | 0.325 | 0.315 | 0.304 | 0.38 | 0.883 | 0.952 | – | 0.949 | 0.881 | 0.203 | 0.216 | 0.2 | 0.197 | 0.48 | 0.517 | 0.518 | 0.493
NCI-H1975 | 0.367 | 0.44 | 0.273 | 0.354 | 0.376 | 0.895 | 0.867 | 0.879 | 0.806 | 0.839 | 0.746 | 0.683 | 0.808 | 0.8 | 0.549 | 0.629 | 0.541 | 0.641
NCI-H1651 | 0.611 | 0.534 | 0.589 | 0.611 | 0.539 | 0.838 | 0.836 | 0.859 | 0.824 | 0.876 | 0.487 | 0.517 | 0.536 | 0.44 | 0.553 | 0.522 | 0.544 | 0.523
NCI-H460 | 0.484 | 0.488 | 0.455 | 0.435 | 0.414 | 0.827 | 1.1 | 0.958 | 0.88 | 0.696 | 0.739 | 0.874 | 0.597 | 0.658 | 0.166 | 0.227 | 0.2 | 0.222
LCLC-103H | 0.688 | 0.719 | 0.666 | 0.716 | 0.68 | 0.946 | 0.93 | 0.914 | 1 | 0.872 | 0.796 | 0.889 | 0.815 | 0.954 | 0.462 | 0.498 | 0.521 | 0.429
LCLC-97TM1 | 0.215 | 0.305 | 0.243 | 0.242 | 0.194 | 0.405 | – | 0.37 | 0.344 | 0.265 | 0.286 | 0.188 | 0.227 | 0.362 | 0.293 | 0.279 | 0.279 | 0.23
PC-14 | 0.191 | 0.246 | 0.215 | 0.231 | 0.206 | 0.907 | 0.881 | 0.97 | 0.943 | 0.723 | 0.381 | 0.274 | 0.438 | 0.576 | 0.397 | 0.535 | 0.524 | 0.509
NCI-H1355 | 0.338 | 0.342 | 0.414 | 0.335 | 0.342 | 1.01 | 1.08 | – | 1.09 | 0.891 | 0.739 | 0.898 | 0.825 | 0.787 | 0.421 | 0.419 | 0.383 | 0.398
HOP-62 | 0.225 | 0.207 | 0.21 | 0.195 | 0.198 | 0.926 | 0.982 | 0.882 | 0.748 | 0.915 | 0.949 | 0.648 | 0.584 | 0.646 | 0.471 | 0.581 | 0.559 | 0.447
NCI-H2087 | 0.272 | 0.303 | 0.232 | 0.336 | 0.256 | 0.981 | 1.04 | 1.16 | 0.945 | 0.795 | 1.38 | 1.12 | 1.35 | 1.23 | 0.235 | 0.234 | 0.219 | 0.256
